How the values were obtained:
[1] = biological target: CYP2C9 (Homo sapiens, UniProt P11712); assay: CYP isoenzyme activity; format: in vitro ADME; conditions: 10 μM
[2] = tested on: Th17 cells; assay: IL-17A production of Th17 cells (flex set, flow cytometry); format: cell-based, C57BL/6 mice; conditions: 1.0 μM, 2.5 μM and 5 μM, 3 days, compared to Comparative Example 1
Procedure: The spleen of C57BL/6 mice (8 to 12 weeks old, female) was excised, pulverized by adding IMDM medium, and then passed through a 40 μm cell strainer (BD Falcon), thereby obtaining a single cell suspension. The single cell suspension was centrifuged (1200 rpm, 5 minutes), and after discarding the supematant, 1 ml of ACK lysis buffer was added, followed by stirring for 1 minute and then washing the same with RPMI medium. After the single cell suspension was centrifuged, T-cells were separated using a Mouse CD4 Naive T cell Enrichment Kit (Invitrogen). The separated T-cells were prepared by resuspending them in RPMI-fetal bovine serum (FBS) 10%+2-ME (mercaptoethanol) medium at 1×10^6/ml. For T-cell activation, 5 μg/ml anti-CD3 (eBioscience™) was dispensed by 100 μl onto a 96-well plate, reacted in a cell incubator (37° C., 5% CO2 incubator) for 4 hours, and washed with phosphate buffered saline to prepare the plate. The T-cells were dispensed by 200 μl onto the prepared plate, and each well was treated with 2 μg/ml of anti-CD28 (eBioscience™), 3 ng/ml of TGFβ-1 (R&D systems), 10 ng/ml of IL-2 (R&D systems), 5 μg/ml of anti-mouse IFN-γ (Bio X cell), and 5 μg/ml of anti-mouse IL-4 (Bio X cell). […]

[3] = tested on: DSS-induced inflammatory bowel disease; assay: DSS-induced inflammatory bowel disease model: colon mRNA expression (real-time PCR); format: in vivo, C57BL/6 mice
Excerpt: On the 15th day of the experiment, the colon of the mouse was excised to prepare an mRNA sample. In order to extract mRNA, the colon tissue was ground with a homogenizer to acquire a homogeneous suspension. From the homogeneous suspension, mRNA was extracted by a phenol-chloroform sedimentation method using an easy-spin™ (DNA free) total RNA extraction kit (Intron biotechnology, Cat No. 17221). […] Herein, one (1) fold was set using the normal mouse colon as a control.
The real-time polymerase chain reaction was implemented under the conditions of 45 cycles at an annealing temperature of 58° C. and the following primer sequences were used.
The therapeutic effects of Compound 6 and Comparative Example 1 on inflammatory bowel disease were compared. Inflammatory bowel disease was induced in C57BL/6 mice in the same manner as in Example 4, and after oral administration of 10 mg/kg of Compound 6 and Comparative Example 1 to mice, the expression levels of IL-6 and S100a9 mRNA were confirmed in colon tissues.

[4] = 10 mg/kg oral daily, 15th day, compared to solvent control
[5] = 10 mg/kg oral, compared to Comparative Example 1

Sequence of CYP2C9 (P11712 whole entry): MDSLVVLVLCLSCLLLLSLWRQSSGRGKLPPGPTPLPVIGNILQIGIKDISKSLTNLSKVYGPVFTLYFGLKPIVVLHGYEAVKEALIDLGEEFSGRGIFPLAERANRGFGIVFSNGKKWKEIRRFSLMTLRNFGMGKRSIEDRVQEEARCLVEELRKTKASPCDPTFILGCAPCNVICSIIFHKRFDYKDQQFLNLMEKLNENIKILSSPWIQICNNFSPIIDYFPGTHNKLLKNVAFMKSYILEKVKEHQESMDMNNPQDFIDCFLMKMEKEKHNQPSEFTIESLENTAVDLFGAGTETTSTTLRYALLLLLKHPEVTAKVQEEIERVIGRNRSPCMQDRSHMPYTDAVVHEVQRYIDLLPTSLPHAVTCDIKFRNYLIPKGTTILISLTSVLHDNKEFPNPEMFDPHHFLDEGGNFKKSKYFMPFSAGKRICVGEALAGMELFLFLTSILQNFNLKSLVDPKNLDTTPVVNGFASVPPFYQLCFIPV

Question: Which CYP2C9 activity [1] does the source give for `O=C(Cc1c[nH]c2ccc(Cl)cc12)Nc1nc2ccc(N3CCOCC3)cc2s1` [Compound 6, 2-(5-chloro-1H-indol-3-yl)-N-(6-morpholinobenzo[d]thiazol-2-yl)acetamide] here?
Answer: The CYP2C9 activity was 94.5 % of Control Activity.

Question: What about the “IL-17A production of Th17 cells” value [2] of the same compound?
Answer: Its value is “significantly decreased”.

Question: And the “Foxp3 expression level in colon lesions” value [3, 4]?
Answer: Its value is “significantly increased”.

Question: What about the “IL-1β expression level in colon lesions” value [3, 4] of the same compound?
Answer: The value was “significantly reduced”.

Question: What about the “IL-6 expression level in colon lesions” value [3, 4] of the same compound?
Answer: The value was “significantly reduced”.

Question: What about the “IL-10 expression level in colon lesions” value [3, 4] of the same compound?
Answer: The value was “significantly increased”.

Question: And the “IL-17A expression level in colon lesions” value [3, 4]?
Answer: The value was “significantly reduced”.

Question: What about the “Muc2 expression level in colon lesions” value [3, 4] of the same compound?
Answer: The value was “significantly increased”.

Question: What about the “Reg3b expression level in colon lesions” value [3, 4] of the same compound?
Answer: Its value is “significantly increased”.

Question: What about the “S100a8 expression level in colon lesions” value [3, 4] of the same compound?
Answer: The value was “significantly reduced”.

Question: What about the “S100a9 expression level in colon lesions” value [3, 4] of the same compound?
Answer: Its value is “significantly reduced”.

Question: And the “TNF-α expression level in colon lesions” value [3, 4]?
Answer: The value was “significantly reduced”.

Question: And the “IL-6 mRNA expression level in colon tissues” value [3, 5]?
Answer: Its value is “significantly decreased”.

Question: What about the “S100a9 mRNA expression level in colon tissues” value [3, 5] of the same compound?
Answer: Its value is “significantly decreased”.
